In ChEMBL document CHEMBL1201862, “PubChem BioAssay data set” (2004):
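In this assay, cells in 96-well plates receive the compound at five concentrations for 48 hours. Endpoints are linearly interpolated between the surrounding concentrations. Here, GI50 denotes the concentration required for 50% inhibition of growth.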 Activity calls are given as the source filed them. Rule as the data show it: active = GI50 up to about 1.1 µM and inactive = higher.

Experiments:
Assay in all cases: NCI anticancer screen, dose series, 48 h
[1] = test system: CCRF-CEM
[2] = test system: EKVX
[3] = test system: IGROV-1
[4] = test system: KM12
[5] = test system: LOX IMVI
[6] = test system: NCI-H226
[7] = test system: NCI-H23
[8] = test system: NCI-H460
[9] = test system: NCI-H522
[10] = test system: OVCAR-4
[11] = test system: OVCAR-5
[12] = test system: SF-295
[13] = test system: SK-MEL-28
[14] = test system: SK-OV-3
[15] = test system: SR
[16] = test system: TK-10
[17] = test system: UACC-257
[18] = test system: UACC-62
[19] = test system: HCT-116

In the case of CO[C@@H]1C=C[C@@]23c4cc5c(cc4CN(C[C@@H]2O)[C@H]3C1)OCO5 [(+)-HAEMANTHAMINE], the GI50 [1] is reported as 8.34 µM (inactive), the GI50 [2] is reported as 38 µM (inactive) and the GI50 [3] is reported as 23.1 µM (inactive). For the same compound, the GI50 [4] was 13.5 µM (inactive), the GI50 [5] was 6.38 µM (inactive) and the GI50 [6] was 25.4 µM (inactive). The GI50 [7] was 23.6 µM (inactive), the GI50 [8] was 15.7 µM (inactive) and the GI50 [9] was 12.1 µM (inactive). The GI50 [10] was 3.85 µM (inactive), the GI50 [11] was 41.9 µM (inactive) and the GI50 [12] was 19.1 µM (inactive). For the same compound, the GI50 [13] was 18.9 µM (inactive), the GI50 [14] was 19.5 µM (inactive) and the GI50 [15] was 15 µM (inactive). For the same compound, the GI50 [16] was 30.8 µM (inactive), the GI50 [17] was 22.6 µM (inactive) and the GI50 [18] was 12.9 µM (inactive).

With C=C1CN2CCc3c([nH]c4ccccc34)C2CC1CC(=O)N(C)C (stereo unspecified) the GI50 [1] was > 309 µM (inactive), the GI50 [2] was > 309 µM (inactive) and the GI50 [19] was > 309 µM (inactive). The GI50 [3] was > 309 µM (inactive), the GI50 [4] was > 309 µM (inactive) and the GI50 [5] was > 309 µM (inactive). For the same compound, the GI50 [6] was > 309 µM (inactive), the GI50 [7] was > 309 µM (inactive) and the GI50 [8] was > 309 µM (inactive). The GI50 [9] was > 309 µM (inactive), the GI50 [12] was > 309 µM (inactive) and the GI50 [13] was > 309 µM (inactive). For the same compound, the GI50 [14] was > 309 µM (inactive), the GI50 [15] was > 309 µM (inactive) and the GI50 [16] was > 309 µM (inactive). The GI50 [17] was > 309 µM (inactive) and the GI50 [18] was > 309 µM (inactive).

In the case of NCC1(N2CCOCC2)C2CCCC21CNc1ccccc1 (stereo unspecified), the GI50 [1] is reported as > 100 µM (inactive), the GI50 [19] is reported as > 100 µM (inactive) and the GI50 [3] is reported as > 100 µM (inactive). For the same compound, the GI50 [4] was > 100 µM (inactive), the GI50 [5] was > 100 µM (inactive) and the GI50 [7] was > 100 µM (inactive). The GI50 [8] was > 100 µM (inactive), the GI50 [9] was > 100 µM (inactive) and the GI50 [10] was > 100 µM (inactive). The GI50 [11] was > 100 µM (inactive), the GI50 [12] was > 100 µM (inactive) and the GI50 [13] was > 100 µM (inactive). The GI50 [15] was > 100 µM (inactive), the GI50 [16] was > 100 µM (inactive) and the GI50 [17] was > 100 µM (inactive). The GI50 [18] was > 100 µM (inactive).

With S=c1sc2sc(=S)sc2s1 the GI50 [1] was 6.08 µM (inactive), the GI50 [19] was 30.1 µM (inactive) and the GI50 [3] was > 100 µM (inactive). The GI50 [4] was > 100 µM (inactive), the GI50 [5] was 33.5 µM (inactive) and the GI50 [8] was 22.4 µM (inactive). The GI50 [9] was 33.1 µM (inactive), the GI50 [10] was > 100 µM (inactive) and the GI50 [11] was 20.9 µM (inactive). The GI50 [12] was 20.6 µM (inactive), the GI50 [14] was 19.6 µM (inactive) and the GI50 [15] was 29.1 µM (inactive). For the same compound, the GI50 [16] was > 100 µM (inactive), the GI50 [17] was > 100 µM (inactive) and the GI50 [18] was 37.2 µM (inactive).

N/N=C(\N)SCCCCCCCCCCS/C(N)=N/N was tested, and the GI50 [1] was 17.2 µM (inactive), the GI50 [2] was 31.1 µM (inactive) and the GI50 [19] was 26.8 µM (inactive). For the same compound, the GI50 [3] was 18.7 µM (inactive), the GI50 [4] was 20 µM (inactive) and the GI50 [5] was 11.5 µM (inactive). For the same compound, the GI50 [6] was 27 µM (inactive), the GI50 [7] was 25.8 µM (inactive) and the GI50 [8] was 15.9 µM (inactive). For the same compound, the GI50 [9] was 17.1 µM (inactive), the GI50 [11] was 45.4 µM (inactive) and the GI50 [12] was 23 µM (inactive). For the same compound, the GI50 [13] was 37.8 µM (inactive), the GI50 [14] was < 0.01 µM (active) and the GI50 [15] was 13.2 µM (inactive). The GI50 [16] was 20.3 µM (inactive), the GI50 [17] was 30.1 µM (inactive) and the GI50 [18] was 21.5 µM (inactive).

CCCC(=O)OC1C(CO)OC(n2cc(F)c(=O)[nH]c2=O)C1F (stereo unspecified) was tested, and the GI50 [1] was 3.91 µM (inactive), the GI50 [2] was 67 µM (inactive) and the GI50 [19] was 22.3 µM (inactive). For the same compound, the GI50 [3] was 95.7 µM (inactive), the GI50 [4] was > 100 µM (inactive) and the GI50 [5] was > 100 µM (inactive). The GI50 [6] was > 100 µM (inactive), the GI50 [7] was > 100 µM (inactive) and the GI50 [9] was > 100 µM (inactive). The GI50 [10] was 60.5 µM (inactive), the GI50 [11] was > 100 µM (inactive) and the GI50 [12] was 82 µM (inactive). The GI50 [13] was > 100 µM (inactive), the GI50 [14] was > 100 µM (inactive) and the GI50 [15] was 5.41 µM (inactive). The GI50 [16] was > 100 µM (inactive), the GI50 [17] was > 100 µM (inactive) and the GI50 [18] was 24.1 µM (inactive).

In the case of CSC1=Nc2ccccc2N=C(c2ccc(Cl)cc2)C1, the GI50 [1] is reported as 27.9 µM (inactive), the GI50 [2] is reported as 20.5 µM (inactive) and the GI50 [19] is reported as 26.5 µM (inactive). For the same compound, the GI50 [3] was 22.8 µM (inactive), the GI50 [4] was 36.8 µM (inactive) and the GI50 [5] was 27.1 µM (inactive). The GI50 [6] was > 100 µM (inactive), the GI50 [7] was 31.7 µM (inactive) and the GI50 [8] was 40.2 µM (inactive). The GI50 [9] was 43.1 µM (inactive), the GI50 [10] was > 100 µM (inactive) and the GI50 [11] was 27.8 µM (inactive). For the same compound, the GI50 [12] was 43.9 µM (inactive), the GI50 [13] was 42 µM (inactive) and the GI50 [14] was 73.3 µM (inactive). The GI50 [15] was 32.1 µM (inactive), the GI50 [17] was 27.7 µM (inactive) and the GI50 [18] was 42.8 µM (inactive).

Cn1cc(C(=O)c2ccccc2)c2ccccc2c1=O was tested, and the GI50 [1] was > 100 µM (inactive), the GI50 [2] was > 100 µM (inactive) and the GI50 [19] was > 100 µM (inactive). The GI50 [3] was > 100 µM (inactive), the GI50 [4] was > 100 µM (inactive) and the GI50 [5] was > 100 µM (inactive). The GI50 [8] was > 100 µM (inactive), the GI50 [9] was 34.4 µM (inactive) and the GI50 [10] was > 100 µM (inactive). For the same compound, the GI50 [12] was 93.5 µM (inactive), the GI50 [13] was > 100 µM (inactive) and the GI50 [14] was > 100 µM (inactive). The GI50 [15] was > 100 µM (inactive), the GI50 [16] was 73.1 µM (inactive) and the GI50 [17] was > 100 µM (inactive). For the same compound, the GI50 [18] was 49.2 µM (inactive).
